The record followed here is the NIST ThermoML archive (doi:10.1016/j.jct.2013.11.027).

Numbers after ± are expanded uncertainties.

A short description of the first data set: xn = mol fraction of the nth substance listed. Particulars: 298.15 K; 101 kPa; Liquid; Vibrating tube method; x2 = 0.
Broadly, the mass density is mass per unit of volume. Turning to `C1COCCO1` [1,4-dioxane] + CCCCCCCC[n+]1ccn(C)c1.F[B-](F)(F)F, the mass density was determined as 1027.85 ± 0.12 kg/m3.

With `C1COCCO1` [1,4-dioxane] + CCCCCCn1cc[n+](C)c1.F[B-](F)(F)F, the mass density is given as 1027.85 ± 0.12 kg/m3.

In the case of `C1CCOC1` [tetrahydrofuran] + CCCCCCn1cc[n+](C)c1.F[B-](F)(F)F, the mass density turned out to be 882.209 ± 0.17 kg/m3.

With `C1CCOC1` [tetrahydrofuran] + CCCCCCCC[n+]1ccn(C)c1.F[B-](F)(F)F, the mass density worked out at 882.209 ± 0.17 kg/m3.

The data set is the same for the next values; noted with them: 308.15 K; 101 kPa; Liquid; Sing-around technique in a fixed-path interferometer; x2 = 0.
The speed of sound is the propagation velocity of pressure waves in the medium. With `C1COCCO1` [1,4-dioxane] + CCCCCCCC[n+]1ccn(C)c1.F[B-](F)(F)F, the speed of sound is recorded as 1301.1 ± 1.2 m/s.

On to `C1COCCO1` [1,4-dioxane] + CCCCCCn1cc[n+](C)c1.F[B-](F)(F)F, for which the speed of sound is given as 1301.1 ± 1.2 m/s.

On to `C1CCOC1` [tetrahydrofuran] + CCCCCCn1cc[n+](C)c1.F[B-](F)(F)F, for which the speed of sound came out at 1232.5 ± 1.4 m/s.

In the case of `C1CCOC1` [tetrahydrofuran] + CCCCCCCC[n+]1ccn(C)c1.F[B-](F)(F)F, the speed of sound is 1232.5 ± 1.4 m/s.

Staying with this data set, now noted: 308.15 K; 101 kPa; Liquid; Vibrating tube method; x2 = 0.
On to `C1COCCO1` [1,4-dioxane] + CCCCCCCC[n+]1ccn(C)c1.F[B-](F)(F)F, for which the mass density was 1016.52 ± 0.12 kg/m3.

Consider `C1COCCO1` [1,4-dioxane] + CCCCCCn1cc[n+](C)c1.F[B-](F)(F)F, for which the mass density is on record as 1016.52 ± 0.12 kg/m3.

Consider `C1CCOC1` [tetrahydrofuran] + CCCCCCn1cc[n+](C)c1.F[B-](F)(F)F, for which the mass density was 871.159 ± 0.17 kg/m3.

As to `C1CCOC1` [tetrahydrofuran] + CCCCCCCC[n+]1ccn(C)c1.F[B-](F)(F)F, the mass density came to 871.159 ± 0.17 kg/m3.

Staying with this data set, now noted: 318.15 K; 101 kPa; Liquid; Sing-around technique in a fixed-path interferometer; x2 = 0.
On to `C1COCCO1` [1,4-dioxane] + CCCCCCCC[n+]1ccn(C)c1.F[B-](F)(F)F, for which the speed of sound worked out at 1257.8 ± 1.2 m/s.

With `C1COCCO1` [1,4-dioxane] + CCCCCCn1cc[n+](C)c1.F[B-](F)(F)F, the speed of sound was 1257.8 ± 1.2 m/s.

For `C1CCOC1` [tetrahydrofuran] + CCCCCCn1cc[n+](C)c1.F[B-](F)(F)F, the speed of sound is reported as 1185.2 ± 1.4 m/s.

As to `C1CCOC1` [tetrahydrofuran] + CCCCCCCC[n+]1ccn(C)c1.F[B-](F)(F)F, the speed of sound is 1185.2 ± 1.4 m/s.

The same data set, now with this note: 318.15 K; 101 kPa; Liquid; Vibrating tube method; x2 = 0.
For the molecule `C1COCCO1` [1,4-dioxane] + CCCCCCCC[n+]1ccn(C)c1.F[B-](F)(F)F, the mass density turned out to be 1005.12 ± 0.12 kg/m3.

Regarding `C1COCCO1` [1,4-dioxane] + CCCCCCn1cc[n+](C)c1.F[B-](F)(F)F, the mass density was determined as 1005.12 ± 0.12 kg/m3.

Consider `C1CCOC1` [tetrahydrofuran] + CCCCCCn1cc[n+](C)c1.F[B-](F)(F)F, for which the mass density amounted to 859.955 ± 0.18 kg/m3.

With `C1CCOC1` [tetrahydrofuran] + CCCCCCCC[n+]1ccn(C)c1.F[B-](F)(F)F, the mass density was 859.955 ± 0.18 kg/m3.

A further data set in a line: refractive index (Na D-line) (dimensionless); xn = mol fraction of the nth substance listed. Particulars: 298.15 K; 101 kPa; Liquid; Standard Abbe refractometry; x2 = 0.
Broadly, the refractive index is the speed of light in vacuum divided by its phase velocity in the sample. Take `C1COCCO1` [1,4-dioxane] + CCCCCCCC[n+]1ccn(C)c1.F[B-](F)(F)F: the refractive index came to 1.41967 ± 0.00037.

On to `C1COCCO1` [1,4-dioxane] + CCCCCCn1cc[n+](C)c1.F[B-](F)(F)F, for which the refractive index is reported as 1.41967 ± 0.00037.

Regarding `C1CCOC1` [tetrahydrofuran] + CCCCCCn1cc[n+](C)c1.F[B-](F)(F)F, the refractive index is 1.4042 ± 0.00039.

Regarding `C1CCOC1` [tetrahydrofuran] + CCCCCCCC[n+]1ccn(C)c1.F[B-](F)(F)F, the refractive index is on record as 1.4042 ± 0.00039.

The data set is the same for the next values; noted with them: 308.15 K; 101 kPa; Liquid; Standard Abbe refractometry; x2 = 0.
For the molecule `C1COCCO1` [1,4-dioxane] + CCCCCCCC[n+]1ccn(C)c1.F[B-](F)(F)F, the refractive index worked out at 1.4148 ± 0.00037.

For the molecule `C1COCCO1` [1,4-dioxane] + CCCCCCn1cc[n+](C)c1.F[B-](F)(F)F, the refractive index worked out at 1.4148 ± 0.00037.

`C1CCOC1` [tetrahydrofuran] + CCCCCCn1cc[n+](C)c1.F[B-](F)(F)F: the refractive index is 1.39885 ± 0.00039.

For `C1CCOC1` [tetrahydrofuran] + CCCCCCCC[n+]1ccn(C)c1.F[B-](F)(F)F, the refractive index is given as 1.39885 ± 0.00039.

The data set is the same for the next values; noted with them: 318.15 K; 101 kPa; Liquid; Standard Abbe refractometry; x2 = 0.
Regarding `C1COCCO1` [1,4-dioxane] + CCCCCCCC[n+]1ccn(C)c1.F[B-](F)(F)F, the refractive index stood at 1.40993 ± 0.00037.

For the molecule `C1COCCO1` [1,4-dioxane] + CCCCCCn1cc[n+](C)c1.F[B-](F)(F)F, the refractive index is 1.40993 ± 0.00037.

With `C1CCOC1` [tetrahydrofuran] + CCCCCCn1cc[n+](C)c1.F[B-](F)(F)F, the refractive index stood at 1.39349 ± 0.00039.

Turning to `C1CCOC1` [tetrahydrofuran] + CCCCCCCC[n+]1ccn(C)c1.F[B-](F)(F)F, the refractive index is reported as 1.39349 ± 0.00039.

The nature of the next data set: refractive index (Na D-line) (dimensionless). Particulars: 293.15 K; 101.33 kPa; Liquid; Standard Abbe refractometry.
As to `C1COCCO1` [1,4-dioxane], the refractive index is given as 1.42215 ± 0.00037.

For the molecule `CCCCCCCC[n+]1ccn(C)c1.F[B-](F)(F)F` [1-methyl-3-octylimidazolium tetrafluoroborate], the refractive index is reported as 1.43389 ± 0.0017.

Regarding `C1CCOC1` [tetrahydrofuran], the refractive index is reported as 1.40696 ± 0.00039.

For the molecule `CCCCCCn1cc[n+](C)c1.F[B-](F)(F)F` [1-hexyl-3-methylimidazolium tetrafluoroborate], the refractive index is given as 1.43308 ± 0.00053.

Still in this data set, the particulars now being: 298.15 K; 101.33 kPa; Liquid; Standard Abbe refractometry.
As to `C1COCCO1` [1,4-dioxane], the refractive index is listed as 1.41967 ± 0.00037.

For `CCCCCCCC[n+]1ccn(C)c1.F[B-](F)(F)F` [1-methyl-3-octylimidazolium tetrafluoroborate], the refractive index came out at 1.43296 ± 0.0017.

Consider `C1CCOC1` [tetrahydrofuran], for which the refractive index was 1.4042 ± 0.00039.

For `CCCCCCn1cc[n+](C)c1.F[B-](F)(F)F` [1-hexyl-3-methylimidazolium tetrafluoroborate], the refractive index is listed as 1.43167 ± 0.00053.

The same data set, now with this note: 303.15 K; 101.33 kPa; Liquid; Standard Abbe refractometry.
As to `C1COCCO1` [1,4-dioxane], the refractive index worked out at 1.41725 ± 0.00037.

In the case of `CCCCCCCC[n+]1ccn(C)c1.F[B-](F)(F)F` [1-methyl-3-octylimidazolium tetrafluoroborate], the refractive index stood at 1.43192 ± 0.0017.

Turning to `C1CCOC1` [tetrahydrofuran], the refractive index amounted to 1.40157 ± 0.00039.

For the molecule `CCCCCCn1cc[n+](C)c1.F[B-](F)(F)F` [1-hexyl-3-methylimidazolium tetrafluoroborate], the refractive index is 1.43029 ± 0.00053.

The same data set, now with this note: 308.15 K; 101.33 kPa; Liquid; Standard Abbe refractometry.
Consider `C1COCCO1` [1,4-dioxane], for which the refractive index is 1.4148 ± 0.00037.

On to `CCCCCCCC[n+]1ccn(C)c1.F[B-](F)(F)F` [1-methyl-3-octylimidazolium tetrafluoroborate], for which the refractive index came out at 1.42939 ± 0.0017.

For the molecule `C1CCOC1` [tetrahydrofuran], the refractive index is on record as 1.39885 ± 0.00039.

Consider `CCCCCCn1cc[n+](C)c1.F[B-](F)(F)F` [1-hexyl-3-methylimidazolium tetrafluoroborate], for which the refractive index is 1.4289 ± 0.00053.

Still in this data set, the particulars now being: 313.15 K; 101.33 kPa; Liquid; Standard Abbe refractometry.
As for `C1COCCO1` [1,4-dioxane], the refractive index is given as 1.41236 ± 0.00037.

`CCCCCCCC[n+]1ccn(C)c1.F[B-](F)(F)F` [1-methyl-3-octylimidazolium tetrafluoroborate]: the refractive index stood at 1.42772 ± 0.0017.

As for `C1CCOC1` [tetrahydrofuran], the refractive index was 1.39623 ± 0.00039.

For the molecule `CCCCCCn1cc[n+](C)c1.F[B-](F)(F)F` [1-hexyl-3-methylimidazolium tetrafluoroborate], the refractive index came to 1.42752 ± 0.00053.

Still in this data set, the particulars now being: 318.15 K; 101.33 kPa; Liquid; Standard Abbe refractometry.
Take `C1COCCO1` [1,4-dioxane]: the refractive index is given as 1.40993 ± 0.00037.

For `CCCCCCCC[n+]1ccn(C)c1.F[B-](F)(F)F` [1-methyl-3-octylimidazolium tetrafluoroborate], the refractive index came to 1.42684 ± 0.0017.

With `C1CCOC1` [tetrahydrofuran], the refractive index was 1.39349 ± 0.00039.

For `CCCCCCn1cc[n+](C)c1.F[B-](F)(F)F` [1-hexyl-3-methylimidazolium tetrafluoroborate], the refractive index is 1.42612 ± 0.00053.

Still in this data set, the particulars now being: 323.15 K; 101.33 kPa; Liquid; Standard Abbe refractometry.
On to `C1COCCO1` [1,4-dioxane], for which the refractive index came out at 1.40749 ± 0.00037.

As to `CCCCCCCC[n+]1ccn(C)c1.F[B-](F)(F)F` [1-methyl-3-octylimidazolium tetrafluoroborate], the refractive index came out at 1.42696 ± 0.0017.

For `C1CCOC1` [tetrahydrofuran], the refractive index worked out at 1.39083 ± 0.00039.

Consider `CCCCCCn1cc[n+](C)c1.F[B-](F)(F)F` [1-hexyl-3-methylimidazolium tetrafluoroborate], for which the refractive index is 1.42474 ± 0.00053.
